The text below walks through data of PubChem BioAssay (NCI).

Common to all, as to experiment: NCI-60 cell line screen, 48 h
Assay [1] concerns SN12C renal.
In assay [2] the test system is UACC-257 melanoma.
For assay [3], the system named is SW-620 colon.
The subject of assay [4] is SK-MEL-28 melanoma.
The subject of assay [5] is HCT-15 colon.
Assay [6] relates to OVCAR-4 ovarian.
Assay [7] concerns SK-MEL-2 melanoma.
Assay [8] relates to MOLT-4 leukemia.
For assay [9], the system named is HOP-62 NSCLC.
The subject of assay [10] is HCC-2998 colon.
Assay [11] deals with MALME-3M melanoma.
Assay [12] concerns SK-MEL-5 melanoma.
For assay [13], the system named is NCI-H522 lung.

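Test compounds were applied to cells in 96-well plates for 48 hours at 5 doses. At the TGI there is no net growth.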

As for `COc1c(=O)cc2cc[nH]c3ccn(C)c1c23`, the TGI in assay [1], in [2], in assay [3], in [4], in [5] and in assay [6] was > 100 µM each time. Besides, the TGI in assay [7], in assay [8], in [9] and in assay [10] was > 100 µM each time.
Take `O=C(/C=C/c1ccccc1)Oc1ccc(C(=O)/C=C/c2ccc(Cl)cc2)cc1`: the TGI in [1], in assay [2], in assay [3], in assay [4], in assay [11] and in [7] was > 100 µM in each case. The TGI in [8], in assay [9], in [10] and in [12] was > 100 µM in each case.
With `CC1=NN(c2nc(N)nc(/C(C#N)=C\c3csc([N+](=O)[O-])c3)n2)C(C)(C)C1`, the TGI in assay [2] was > 100 µM; in assay [3] it was > 100 µM; in assay [4] it was > 100 µM; in assay [13], 50.1 µM; in assay [5], > 100 µM; in assay [6], 56.4 µM. The TGI in [7] is 81 µM; in assay [8], > 100 µM; in assay [9] it was 64.6 µM; in [10], > 100 µM; in assay [12], > 100 µM.
As for `CCOP1(=O)C=C(C)C(Cl)=C(C)C1` (configuration not stated), the TGI came to 51.5 µM in assay [1]; 88.7 µM in [2]; 53.5 µM in assay [3]; 56.7 µM in assay [4]; 27.8 µM in [13]; 73.7 µM in assay [5]. Besides, the TGI is 90.9 µM in [6]; 50.4 µM in [7]; 76.1 µM in assay [8]; > 100 µM in assay [9]; > 100 µM in [10]; > 100 µM in assay [12].
On to `COC(=O)c1ccc(S)c(S(=O)(=O)Nc2n[nH]c(N)n2)c1`, for which the TGI in assay [1], in [2], in assay [3], in assay [4], in [13] and in assay [5] was > 100 µM throughout. Moreover, the TGI in [6], in assay [11], in [7], in assay [8] and in [12] was > 100 µM each time.
Consider `CC1CN=C(N(Cc2ccccc2)C(=O)Nc2ccc(Cl)c(Cl)c2)S1` (configuration not stated), for which the TGI in assay [1] is 69.3 µM; in assay [2] it was > 100 µM; in assay [3] it was > 100 µM; in [4], 68.8 µM; in [5], > 100 µM; in assay [6] it was > 100 µM. In addition, the TGI in assay [11] is > 100 µM; in assay [7], 68.3 µM; in assay [8], > 10 µM; in assay [9] it was > 100 µM; in assay [10], > 10 µM; in assay [12], 51.9 µM.
As to `CN(C)C(=NCc1ccccc1)NC#N`, the TGI in assay [1], in assay [2], in assay [3], in [4], in assay [13] and in [5] was > 100 µM each time. The TGI in [6], in assay [7], in assay [9], in assay [10] and in assay [12] was > 100 µM throughout.
Turning to `CC1(C)OC(=S)N(c2ccccc2)C12C=Cc1ccccc1O2` (configuration not stated), the TGI in [1], in [2], in [3], in [4], in assay [13] and in assay [5] was > 100 µM in each case. For the same compound, the TGI is > 100 µM in assay [6]; > 100 µM in assay [7]; 76.5 µM in assay [8]; > 100 µM in assay [9]; > 100 µM in [10]; > 100 µM in assay [12].
As for `CCOC(=O)CNC(=O)C(CSC(=O)N(O)c1ccc(Cl)cc1)NC(=O)CCC(N)C(=O)OCC` (configuration not stated), the TGI in assay [1], in assay [2], in assay [3], in assay [4], in [5] and in assay [7] was > 50 µM each time. The TGI in assay [8], in assay [9], in assay [10] and in assay [12] was > 50 µM in each case.
Consider `CC1(C)OCC([C@H]2O[C@@H](CC(=S)NCCCCCCCCCCCCNC(=S)C[C@H]3O[C@@H](C4COC(C)(C)O4)[C@H]4OC(C)(C)O[C@H]43)[C@H]3OC(C)(C)O[C@H]32)O1` (some centres not stated), for which the TGI in assay [2], in assay [3], in assay [4], in [13], in assay [5] and in [6] was > 100 µM throughout. Further, the TGI in assay [7] was > 100 µM; in assay [8] it was 80.2 µM; in [9], > 100 µM; in [10], > 100 µM; in assay [12], 92.4 µM.
With `Cc1ccc2nc(N/N=C/c3sccc3C)cc(C)c2c1`, the TGI in [1], in assay [2], in assay [3], in [4], in assay [5] and in assay [6] was > 100 µM in each case. Moreover, the TGI in assay [7], in [8], in assay [9], in assay [10] and in assay [12] was > 100 µM in each case.
Turning to `O=c1c2cc(S(=O)(=O)O)ccc2nc(COc2ccc(Oc3ccc(Cl)cc3Cl)cc2)n1-c1ccc(Oc2ccc(Cl)cc2)cc1Cl`, the TGI was found to be 32.9 µM in assay [1]; 57.4 µM in assay [2]; 50.4 µM in assay [3]; 47.8 µM in [13]; 43.8 µM in assay [5]; 73.6 µM in assay [6]. Besides, the TGI came to 85.2 µM in assay [11]; 32.2 µM in assay [7]; 94.9 µM in [8]; 46 µM in assay [9]; 34.6 µM in [12].
